Measured values reported in PubChem BioAssay (NCI).
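Test compounds were applied to cells in 96-well plates for 48 hours at 5 doses. At the GI50, growth is halved. TGI is the concentration that stops growth completely.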

Key:
Experiment in all cases: DTP human tumour cell line panel, 48 h
NCI-H226 lung = system: NCI-H226 lung
MCF7 breast = system: MCF7 breast
ACHN renal = system: ACHN renal
U251 CNS = system: U251 CNS
RPMI-8226 leukemia = system: RPMI-8226 leukemia
NCI-H460 lung = system: NCI-H460 lung
NCI/ADR-RES ovarian = system: NCI/ADR-RES ovarian
KM12 colon = system: KM12 colon
HCC-2998 colon = system: HCC-2998 colon
HCT-15 colon = system: HCT-15 colon
A498 renal = system: A498 renal
CCRF-CEM leukemia = system: CCRF-CEM leukemia
T-47D breast = system: T-47D breast
SF-539 CNS = system: SF-539 CNS
SR leukemia = system: SR leukemia
UACC-257 melanoma = system: UACC-257 melanoma
TK-10 renal = system: TK-10 renal
SF-268 CNS = system: SF-268 CNS
MDA-MB-231 breast = system: MDA-MB-231 breast
SF-295 CNS = system: SF-295 CNS
UO-31 renal = system: UO-31 renal
A549 NSCLC = system: A549 NSCLC
MOLT-4 leukemia = system: MOLT-4 leukemia
OVCAR-3 ovarian = system: OVCAR-3 ovarian
MDA-MB-435 = system: MDA-MB-435
NCI-H23 lung = system: NCI-H23 lung
HOP-62 NSCLC = system: HOP-62 NSCLC
DU-145 prostate = system: DU-145 prostate
HS 578T breast = system: HS 578T breast
NCI-H522 lung = system: NCI-H522 lung
RXF 393 renal = system: RXF 393 renal
IGROV1 ovarian = system: IGROV1 ovarian
786-0 renal = system: 786-0 renal
SK-OV-3 ovarian = system: SK-OV-3 ovarian
COLO 205 colon = system: COLO 205 colon
SK-MEL-5 melanoma = system: SK-MEL-5 melanoma
HCT-116 colon = system: HCT-116 colon
SK-MEL-28 melanoma = system: SK-MEL-28 melanoma
MALME-3M melanoma = system: MALME-3M melanoma
BT-549 breast = system: BT-549 breast
OVCAR-8 ovarian = system: OVCAR-8 ovarian
K-562 leukemia = system: K-562 leukemia
PC-3 prostate = system: PC-3 prostate
CAKI-1 renal = system: CAKI-1 renal
M14 melanoma = system: M14 melanoma
UACC-62 melanoma = system: UACC-62 melanoma
OVCAR-5 ovarian = system: OVCAR-5 ovarian
SNB-19 CNS = system: SNB-19 CNS
SN12C renal = system: SN12C renal
HL-60(TB) leukemia = system: HL-60(TB) leukemia
SNB-75 CNS = system: SNB-75 CNS
OVCAR-4 ovarian = system: OVCAR-4 ovarian
SW-620 colon = system: SW-620 colon
HT29 colon = system: HT29 colon

For c1ccc2[nH]c(-c3cc(-c4ccc5c(c4)OCO5)n[nH]3)nc2c1, the GI50 (NCI-H226 lung) was 4.2 µM, the TGI (NCI-H226 lung) was 21 µM and the GI50 (MCF7 breast) was 3.78 µM. It also gave a TGI (MCF7 breast) of 18.3 µM, a GI50 (ACHN renal) of 4.33 µM and a TGI (ACHN renal) of 19 µM. The GI50 (U251 CNS) was 2.37 µM, the TGI (U251 CNS) was 14.4 µM and the GI50 (RPMI-8226 leukemia) was 1.14 µM. For the same molecule, the TGI (RPMI-8226 leukemia) was 7.16 µM, the GI50 (NCI-H460 lung) was 4.57 µM and the TGI (NCI-H460 lung) was 17.7 µM. The GI50 (NCI/ADR-RES ovarian) was 4.08 µM, the TGI (NCI/ADR-RES ovarian) was 27.1 µM and the GI50 (KM12 colon) was 1.75 µM. It also gave a TGI (KM12 colon) of 13.2 µM, a GI50 (HCC-2998 colon) of 3.74 µM and a TGI (HCC-2998 colon) of 14 µM. It also gave a GI50 (HCT-15 colon) of 3.86 µM, a TGI (HCT-15 colon) of 20.3 µM and a GI50 (A498 renal) of 1.7 µM. For the same molecule, the TGI (A498 renal) was 12.8 µM, the GI50 (CCRF-CEM leukemia) was 2.52 µM and the TGI (CCRF-CEM leukemia) was 22.4 µM. For the same molecule, the GI50 (T-47D breast) was 3.32 µM, the TGI (T-47D breast) was 16.2 µM and the GI50 (SF-539 CNS) was 2.71 µM. For the same molecule, the TGI (SF-539 CNS) was 14.1 µM, the GI50 (SR leukemia) was 3.37 µM and the TGI (SR leukemia) was 16.8 µM. It also gave a GI50 (UACC-257 melanoma) of 6 µM, a TGI (UACC-257 melanoma) of 23.2 µM and a GI50 (TK-10 renal) of 10.9 µM. The TGI (TK-10 renal) was 23.8 µM, the GI50 (SF-268 CNS) was 4.77 µM and the TGI (SF-268 CNS) was 22.4 µM. The GI50 (MDA-MB-231 breast) was 4.12 µM, the TGI (MDA-MB-231 breast) was 20.2 µM and the GI50 (SF-295 CNS) was 3.24 µM. For the same molecule, the TGI (SF-295 CNS) was 14.6 µM, the GI50 (UO-31 renal) was 3.98 µM and the TGI (UO-31 renal) was 16.1 µM. For the same molecule, the GI50 (A549 NSCLC) was 4.23 µM, the TGI (A549 NSCLC) was 19.7 µM and the GI50 (MOLT-4 leukemia) was 2.68 µM. It also gave a TGI (MOLT-4 leukemia) of 20.9 µM, a GI50 (OVCAR-3 ovarian) of 3.21 µM and a TGI (OVCAR-3 ovarian) of 14.6 µM. The GI50 (MDA-MB-435) was 3.12 µM, the TGI (MDA-MB-435) was 15.6 µM and the GI50 (NCI-H23 lung) was 4.47 µM. The TGI (NCI-H23 lung) was 19.3 µM, the GI50 (HOP-62 NSCLC) was 8.46 µM and the TGI (HOP-62 NSCLC) was 21.8 µM. For the same molecule, the GI50 (DU-145 prostate) was 7.27 µM, the TGI (DU-145 prostate) was 22 µM and the GI50 (HS 578T breast) was 3.8 µM. It also gave a TGI (HS 578T breast) of 52.3 µM, a GI50 (NCI-H522 lung) of 1.98 µM and a TGI (NCI-H522 lung) of 10.3 µM. It also gave a GI50 (RXF 393 renal) of 2.36 µM, a TGI (RXF 393 renal) of 12.1 µM and a GI50 (IGROV1 ovarian) of 3.66 µM. The TGI (IGROV1 ovarian) was 15.9 µM, the GI50 (786-0 renal) was 4.58 µM and the TGI (786-0 renal) was 17.4 µM. The GI50 (SK-OV-3 ovarian) was 4.98 µM, the TGI (SK-OV-3 ovarian) was 17.7 µM and the GI50 (COLO 205 colon) was 4.78 µM. For the same molecule, the TGI (COLO 205 colon) was 18.5 µM, the GI50 (SK-MEL-5 melanoma) was 1.53 µM and the TGI (SK-MEL-5 melanoma) was 3.55 µM. It also gave a GI50 (HCT-116 colon) of 6.36 µM, a TGI (HCT-116 colon) of 25.4 µM and a GI50 (SK-MEL-28 melanoma) of 4.85 µM. The TGI (SK-MEL-28 melanoma) was 18.5 µM, the GI50 (MALME-3M melanoma) was 2.33 µM and the TGI (MALME-3M melanoma) was 13.2 µM. The GI50 (BT-549 breast) was 2.12 µM, the TGI (BT-549 breast) was 13 µM and the GI50 (OVCAR-8 ovarian) was 3.97 µM. It also gave a TGI (OVCAR-8 ovarian) of 18 µM, a GI50 (K-562 leukemia) of 3.83 µM and a TGI (K-562 leukemia) of 22.1 µM. The GI50 (PC-3 prostate) was 3.64 µM, the TGI (PC-3 prostate) was 17.7 µM and the GI50 (CAKI-1 renal) was 2.74 µM. For the same molecule, the TGI (CAKI-1 renal) was 17.7 µM, the GI50 (M14 melanoma) was 2.19 µM and the TGI (M14 melanoma) was 16.7 µM. The GI50 (UACC-62 melanoma) was 3.08 µM, the TGI (UACC-62 melanoma) was 14.7 µM and the GI50 (OVCAR-5 ovarian) was 14.9 µM. For the same molecule, the TGI (OVCAR-5 ovarian) was 34.3 µM, the GI50 (SNB-19 CNS) was 5.92 µM and the TGI (SNB-19 CNS) was 25.6 µM. The GI50 (SN12C renal) was 3.73 µM, the TGI (SN12C renal) was 21.3 µM and the GI50 (HL-60(TB) leukemia) was 2.27 µM. It also gave a TGI (HL-60(TB) leukemia) of 20.2 µM, a GI50 (SNB-75 CNS) of 10.1 µM and a TGI (SNB-75 CNS) of 23.7 µM. For the same molecule, the GI50 (OVCAR-4 ovarian) was 2.16 µM, the TGI (OVCAR-4 ovarian) was 12 µM and the GI50 (SW-620 colon) was 5.87 µM. For the same molecule, the TGI (SW-620 colon) was 21.4 µM, the GI50 (HT29 colon) was 3.66 µM and the TGI (HT29 colon) was 15 µM.
